From publication PMC5687273 (Cell reports, 2017)

Biological target: Cdk7^as (Homo sapiens, UniProt P50613, D92E/F91G)
Experiment: in vitro kinase assay on GST-CTD, autoradiography
Assay type: biochemical

Chain of Cdk7^as (P50613 2-346 F91G/D92E): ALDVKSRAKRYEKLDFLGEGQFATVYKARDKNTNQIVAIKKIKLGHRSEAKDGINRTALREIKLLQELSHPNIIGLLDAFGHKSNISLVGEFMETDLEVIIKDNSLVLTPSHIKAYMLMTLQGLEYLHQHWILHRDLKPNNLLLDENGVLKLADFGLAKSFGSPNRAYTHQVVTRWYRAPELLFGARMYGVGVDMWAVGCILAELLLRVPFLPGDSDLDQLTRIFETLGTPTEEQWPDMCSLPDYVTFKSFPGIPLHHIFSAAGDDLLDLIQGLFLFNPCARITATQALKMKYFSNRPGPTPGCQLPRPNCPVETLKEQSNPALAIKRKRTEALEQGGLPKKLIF
Chain of Cdk7^as (P51946 whole entry partner): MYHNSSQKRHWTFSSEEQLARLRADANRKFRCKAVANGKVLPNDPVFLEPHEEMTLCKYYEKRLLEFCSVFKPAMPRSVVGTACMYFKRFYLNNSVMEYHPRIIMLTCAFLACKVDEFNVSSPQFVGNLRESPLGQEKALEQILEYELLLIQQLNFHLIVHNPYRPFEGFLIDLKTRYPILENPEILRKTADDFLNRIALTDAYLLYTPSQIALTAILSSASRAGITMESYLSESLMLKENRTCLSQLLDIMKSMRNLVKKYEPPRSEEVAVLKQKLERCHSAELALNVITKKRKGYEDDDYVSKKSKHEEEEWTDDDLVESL
Chain of Cdk7^as (P51948 whole entry partner): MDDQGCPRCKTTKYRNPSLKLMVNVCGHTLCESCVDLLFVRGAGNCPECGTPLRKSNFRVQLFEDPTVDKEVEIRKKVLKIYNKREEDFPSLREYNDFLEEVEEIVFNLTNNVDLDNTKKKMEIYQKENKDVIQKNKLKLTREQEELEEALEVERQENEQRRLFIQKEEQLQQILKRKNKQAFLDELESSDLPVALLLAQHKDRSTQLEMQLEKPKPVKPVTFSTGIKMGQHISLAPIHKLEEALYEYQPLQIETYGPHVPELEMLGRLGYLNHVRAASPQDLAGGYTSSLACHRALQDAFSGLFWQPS

IC50: ~0.01 µM
SMILES: Cc1cccc(Cc2nn(C(C)(C)C)c3ncnc(N)c23)c1 [3-MB-PP1]
